Experiment [1] concerns LPS-induced inflammation (neutrophil infiltration, myeloperoxidase bioluminescence). Briefly: Murine subcutaneous LPS-induced inflammation, neutrophil activity by luminol bioluminescence. It counts as in vivo, mouse. The following applies: given by gavage 30 min prior to LPS (oil fraction 100 microliter; indomethacin 10 mg/kg), vs vehicle. From the text:
To evaluate the anti-inflammatory activity of distinct fatty acid-ethyl ester oil fractions obtained during supercritical fluid chromatography (SFC) for the industrial-scale manufacturing of EPA-ethyl ester and DHA-ethyl ester concentrates, a murine model of subcutaneous sterile inflammation was established which permitted measuring the effects of orally administered oil fractions on the pro-inflammatory phase of the inflammatory response. […] In order to initiate inflammation, Escherichia coli lipopolysaccharide (LPS; serotype 127:B8, purified by trichloroacetic acid extraction, Sigma-Aldrich) was injected sub-cutaneously as a single dose (5 milligram per kilogram in a 200 microliter volume of sterile […] dorsal hind flank of a mouse (CD1 mice of 9 weeks age and weighing approximately 30 grams, purchased from the Charles River company). Neutrophil infiltration into the site of inflammation was measured non-invasively by bioluminescence emitted by conversion of luminol by the neutrophil enzyme myeloperoxidase (Gross, 2009), permitting assessment of inflammatory changes over a 6 hour time period. […]

The test system of experiment [2] is zymosan A-induced peritoneal inflammation (inflammatory exudate cells). Briefly: Murine peritoneal inflammation induced by zymosan A, exudate cells by FACS. Format: in vivo, mouse. The following applies: 4 hours after 0.1 mg zymosan A i.p., vs vehicle. As for the experimental part: With respect to 17-HDHA, it is possible that the anti-inflammatory activity of oil fraction 1 (shown in FIG. 1A) can therefore be explained, at least in part, due to the selective enrichment of this anti-inflammatory SPM precursor into this oil fraction. In order to determine the anti-inflammatory action and contribution of 17-HDHA, the anti-inflammatory effect of fraction 1 was determined in a well-known model of sterile inflammation. […] Vehicle (100 microliter sterile salive), 100 microliter oil fraction 1, or 1 microgram synthetic 17S-HDHA (Cayman Chemicals) in sterile salive was administered by gavage 30 minutes prior to intraperitoneal injection of 0.1 mg zymosan A. Oil fraction 1 analyzed here is the same as fraction number 1 shown in FIGS. 1, 2, and 3. After 4 hours, the inflammatory exudate was recovered and the changes in the number and types of inflammatory cells determined by fluorescent-activated cell sorting employing specific fluorescently-labeled antibodies. Values are mean±standard error of the mean of […] individual mice. Statistically significant differences (Student's t-test) are indicated by * (P<0,05) or # (P<0,10) for comparisons of inflammatory exudate cell numbers obtained after treatment with oil fraction 1 or compared to the vehicle-treated mice. […] This anti-inflammatory effect was reproduced by the oral administration (gavage) of 17S-HDHA.

The mark [3] stands for this setting: gavage 30 min prior (100 microliter oil fraction or 1 microgram 17S-HDHA).

For `COc1ccc2c(c1)c(CC(=O)O)c(C)n2C(=O)c1ccc(Cl)cc1` [indomethacin], the “reduction of LPS-induced inflammation” value in experiment [1] (3 hours after LPS s.c.) came out at 26%; in experiment [1] (6 hours after LPS s.c.), 44%.

Turning to `CC/C=C\C[C@H](O)/C=C/C=C\C/C=C\C/C=C\C/C=C\CCC(=O)O` [17S-HDHA, 17S-hydroxy-docosa-4Z,7Z,10Z,13Z,15E,19Z-hexaenoic acid], in experiment [2] (setting [3]), the “number of polymorphonuclear leukocytes (PMN) in exudate” value is “reproduced” and the “total number of exudate cells” value is listed as “reproduced”. In addition, in experiment [2] (gavage 30 min prior), the “monocytes, macrophages or lymphocytes in exudate” value was “No statistically significant changes”.

Source of the values: patent US11865096B2, “Oils with anti-inflammatory activity containing natural specialized proresolving mediators and their precursors” (Solutex NA LLC, priority 2012, dated 2024).
